# From patent US20210330611A1, “THERAPY FOR NEUROLOGICAL DISEASES/DISORDERS” (priority 2020, published 2021)
# Where a name gives a salt, the structure may show the parent alone. Read-outs that look alike come from different tables or passages of the source.
# How the values were obtained:
# [1] = test system: fibrin-induced microglia activation; test: Image-based assay of fibrin-induced microglia activation (HTS and dose response); format: cell-based, rat; conditions: primary microglia HTS, fibrin stimulation; for inhibition at 10 µM: Rattus norvegicus, Microglia, read-out: Fibrin % inhibition
# [2] = test system: fibrin- and LPS-induced microglia activation; test: cells; format: cell-based, rat
# primary rat microglia [3] = test system: primary rat microglia
# primary rat microglia [4] = test: Cell toxicity (dead cells, size <150 μm2) in coated fibrin (cFib) assay; conditions: primary microglia HTS;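 also: share of dead cells sized under 150 µm2 at 10 µM in fibrin-stimulated microglia HTS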
# [5] = test system: LPS-induced microglia activation; test: Image-based assay of LPS-induced microglia activation (HTS and dose response); format: cell-based, rat; conditions: for inhibition at 10 µM: Rattus norvegicus, Microglia, read-out: LPS % inhibition
# [6] = quadrant by fibrin and LPS inhibition, HTS at 10 μM
# [7] = fibrin assay, dead cells (size <150 μm2)
# [8] = primary microglia HTS, LPS stimulation, compounds at 10 μM
# [9] = cell size >800 μm2 as marker of activation
# [10] = classification by fibrin and LPS inhibition in HTS
# [11] = fibrin stimulation, cell size <150 μm2 as marker of toxicity
# [12] = classification by fibrin and LPS inhibition, HTS at 10 μM
# [13] = fibrin assay, dead cells (size <150 μm2), compounds at 10 μM
# [14] = primary microglia HTS, LPS stimulation, compounds at 10 μM, 10 µM
compound,measurement,setting,value
"COc1cc2nc(N(C)CCCNC(=O)C3CCCO3)nc(N)c2cc1OC.Cl (stereo not drawn) [Alfuzosin Hydrochloride, Alfuzosin]",Fibrin % inhibition,[1]; compounds at 10 μM,1%
same,Quadrant (FIG. 5b),[2]; [6],Q4
same,LPS % cell toxicity,primary rat microglia [3],0%
same,Fibrin % cell toxicity,primary rat microglia [4]; [7],1%
same,LPS % inhibition,[5]; [8],18%
"CC(=O)CC(c1ccc([N+](=O)[O-])cc1)c1c(O)c2ccccc2oc1=O (stereo not drawn) [Acenocoumarol, Acenocoumarin]",Fibrin % inhibition,[1]; compounds at 10 μM,−38%
same,Quadrant (FIG. 5b),[2]; [6],Q4
same,LPS % cell toxicity,primary rat microglia [3],0%
same,Fibrin % cell toxicity,primary rat microglia [4]; [7],0%
same,LPS % inhibition,[5]; [8],14%
Arsenic Trioxide,Fibrin % inhibition,[1]; compounds at 10 μM,14%
same,Quadrant (FIG. 5b),[2]; [6],Q4
same,LPS % cell toxicity,primary rat microglia [3],0%
same,Fibrin % cell toxicity,primary rat microglia [4]; [7],1%
same,LPS % inhibition,[5]; [8],14%
C=CCNC(N)=S [Allylthiourea],inhibition at 10 µM,[1]; compounds at 10 μM,-7%
same,Quadrant (FIG. 5b),[2]; [6],Q4
same,LPS % cell toxicity,primary rat microglia [3]; rat,0%
same,Fibrin % cell toxicity,primary rat microglia [4]; [7],1%
same,inhibition at 10 µM,[5]; [8],11%
Nc1ccc(/N=N/c2ccccc2)c(N)n1 [Phenazopyridine],inhibition at 10 µM,[1]; [9],9%
same,Quadrant (FIG. 5b),[2]; [10],Q4
same,LPS % cell toxicity,primary rat microglia [3]; rat,0%
same,Fibrin % cell toxicity,primary rat microglia [4]; [11],0%
same,inhibition at 10 µM,[5]; 48 h,6%
CC(C)(C)NCC(O)COc1cccc2c1CC(O)C(O)C2 (stereo not drawn) [Nadolol],inhibition at 10 µM,[1]; compounds at 10 μM,107%
same,Quadrant (FIG. 5b),[2]; [6],Q2
same,LPS % cell toxicity,primary rat microglia [3]; rat,3%
same,Fibrin % cell toxicity,primary rat microglia [4]; [7],4%
same,inhibition at 10 µM,[5]; [8],108%
C[C@H](CCC(=O)O)[C@H]1CC[C@H]2[C@@H]3C(=O)C[C@@H]4CC(=O)CC[C@]4(C)[C@H]3CC(=O)[C@]12C [Dehydrocholic Acid],inhibition at 10 µM,[1]; compounds at 10 μM,-30%
same,Quadrant (FIG. 5b),[2]; [12],Q4
same,LPS % cell toxicity,primary rat microglia [3]; rat,0%
same,Fibrin % cell toxicity,primary rat microglia [4]; [13],1%
same,inhibition at 10 µM,[5]; [8],7%
O=C1CC[C@@H](C(=O)O)N1 [Pidolic Acid],inhibition at 10 µM,[1]; [9],-57%
same,Quadrant (FIG. 5b),[2]; [10],Q4
same,LPS % cell toxicity,primary rat microglia [3]; rat,0%
same,Fibrin % cell toxicity,primary rat microglia [4]; [11],1%
same,inhibition at 10 µM,[5]; 48 h,15%
CCN(CC)C(=O)c1ccc(O)c(OC)c1 [Etamivan],inhibition at 10 µM,[1]; compounds at 10 μM,-16%
same,Quadrant (FIG. 5b),[2]; [12],Q4
same,LPS % cell toxicity,primary rat microglia [3]; rat,0%
same,Fibrin % cell toxicity,primary rat microglia [4]; [13],1%
same,inhibition at 10 µM,[5]; [8],16%
CCOC(=O)[C@H](CCc1ccccc1)N[C@@H](C)C(=O)N1[C@H](C(=O)O)C[C@@H]2CCC[C@@H]21 [Ramipril],inhibition at 10 µM,[1]; [9],8%
same,Quadrant (FIG. 5b),[2]; [10],Q4
same,LPS % cell toxicity,primary rat microglia [3]; rat,0%
same,Fibrin % cell toxicity,primary rat microglia [4]; [11],0%
same,inhibition at 10 µM,[5]; 48 h,16%
Nc1ccc2cc3ccc(N)cc3nc2c1 [Proflavine],inhibition at 10 µM,[1]; compounds at 10 μM,113%
same,Quadrant (FIG. 5b),[2]; [6],Q2
same,LPS % cell toxicity,primary rat microglia [3]; rat,59%
same,Fibrin % cell toxicity,primary rat microglia [4]; [7],82%
same,inhibition at 10 µM,[5]; [8],132%
CCC(=O)Oc1ccc2c(c1)CC[C@@H]1[C@@H]2CC[C@]2(C)[C@@H](OC(=O)CC)CC[C@@H]12 [Estradiol Dipropionate],inhibition at 10 µM,[1]; compounds at 10 μM,0%
same,Quadrant (FIG. 5b),[2]; [12],Q4
same,LPS % cell toxicity,primary rat microglia [3]; rat,1%
same,Fibrin % cell toxicity,primary rat microglia [4]; [13],1%
same,inhibition at 10 µM,[5]; [8],17%
CN1C(C(=O)Nc2ccccn2)=C(O)c2ccccc2S1(=O)=O [Piroxicam],inhibition at 10 µM,[1]; [9],4%
same,Quadrant (FIG. 5b),[2]; [10],Q4
same,LPS % cell toxicity,primary rat microglia [3]; rat,0%
same,Fibrin % cell toxicity,primary rat microglia [4]; [11],1%
same,inhibition at 10 µM,[5]; 48 h,19%
CCCCCCOC(=O)NC(=N)c1ccc(NCc2nc3cc(C(=O)N(CCC(=O)OCC)c4ccccn4)ccc3n2C)cc1 [Dabigatran etexilate],inhibition at 10 µM,[1]; compounds at 10 μM,3%
same,Quadrant (FIG. 5b),[2]; [12],Q4
same,LPS % cell toxicity,primary rat microglia [3]; rat,0%
same,Fibrin % cell toxicity,primary rat microglia [4]; [13],0%
same,inhibition at 10 µM,[5]; [8],9%
CC(C)[N+](C)(CCOC(=O)C1c2ccccc2Oc2ccccc21)C(C)C [Propantheline],inhibition at 10 µM,[1]; [9],-7%
same,Quadrant (FIG. 5b),[2]; [10],Q4
same,LPS % cell toxicity,primary rat microglia [3]; rat,0%
same,Fibrin % cell toxicity,primary rat microglia [4]; [11],1%
same,inhibition at 10 µM,[5]; 48 h,20%
CCCN1C[C@H](CSC)C[C@@H]2c3cccc4[nH]cc(c34)C[C@H]21 [Pergolide],inhibition at 10 µM,[1]; [9],-18%
same,Quadrant (FIG. 5b),[2]; [10],Q4
same,LPS % cell toxicity,primary rat microglia [3]; rat,0%
same,Fibrin % cell toxicity,primary rat microglia [4]; [11],0%
same,inhibition at 10 µM,[5]; 48 h,16%
O=C1C(O)=C([C@H]2CC[C@H](c3ccc(Cl)cc3)CC2)C(=O)c2ccccc21 [Atovaquone],inhibition at 10 µM,[1]; compounds at 10 μM,-15%
same,Quadrant (FIG. 5b),[2]; [6],Q4
same,LPS % cell toxicity,primary rat microglia [3]; rat,0%
same,Fibrin % cell toxicity,primary rat microglia [4]; [7],0%
same,inhibition at 10 µM,[5]; [8],13%
O=C(O)CCc1nc2ccccc2[nH]1 [Procodazole],inhibition at 10 µM,[1]; [9],-15%
same,Quadrant (FIG. 5b),[2]; [10],Q4
same,LPS % cell toxicity,primary rat microglia [3]; rat,0%
same,Fibrin % cell toxicity,primary rat microglia [4]; [11],1%
same,inhibition at 10 µM,[5]; 48 h,15%
CC(CCc1ccc(O)cc1)NCCc1ccc(O)c(O)c1 (stereo not drawn) [Dobutamine Hydrochloride],Fibrin % inhibition,"[1]; compounds at 10 μM, 10 µM",22%
same,Quadrant (FIG. 5b),[2]; [12],Q4
same,LPS % cell toxicity,primary rat microglia [3]; rat,0%
same,Fibrin % cell toxicity,primary rat microglia [4]; [13],1%
same,LPS % inhibition,[5]; [14],27%
Nc1ccc([As](=O)(O)O)cc1 [Arsanilic Acid],Fibrin % inhibition,[1]; compounds at 10 μM,−42%
same,Quadrant (FIG. 5b),[2]; [6],Q4
same,LPS % cell toxicity,primary rat microglia [3]; rat,0%
same,Fibrin % cell toxicity,primary rat microglia [4]; [7],0%
same,LPS % inhibition,[5]; [8],12%
Cc1ccc(/N=C/N(C)/C=N/c2ccc(C)cc2C)c(C)c1 [Amitraz],inhibition at 10 µM,[1]; compounds at 10 μM,-18%
same,Quadrant (FIG. 5b),[2]; [6],Q4
same,LPS % cell toxicity,primary rat microglia [3]; rat,0%
same,Fibrin % cell toxicity,primary rat microglia [4]; [7],0%
same,inhibition at 10 µM,[5]; [8],9%
C[C@]12CC[C@@H]3c4ccc(O)cc4CC[C@H]3[C@@H]1CC[C@@H]2OC(=O)CCC1CCCC1 [Estradiol Cypionate],inhibition at 10 µM,[1]; compounds at 10 μM,-25%
same,Quadrant (FIG. 5b),[2]; [12],Q4
same,LPS % cell toxicity,primary rat microglia [3]; rat,0%
same,Fibrin % cell toxicity,primary rat microglia [4]; [13],0%
same,inhibition at 10 µM,[5]; [8],8%
CCCCCCCCCC(=O)N[C@@H](Cc1c[nH]c2ccccc12)C(=O)N[C@@H](CC(N)=O)C(=O)N[C@@H](CC(=O)O)C(=O)N[C@@H]1C(=O)NCC(=O)N[C@@H](CCCN)C(=O)N[C@@H](CC(=O)O)C(=O)N[C@H](C)C(=O)N[C@@H](CC(=O)O)C(=O)NCC(=O)N[C@H](CO)C(=O)N[C@@H]([C@H](C)CC(=O)O)C(=O)N[C@@H](CC(=O)c2ccccc2N)C(=O)O[C@@H]1C [Daptomycin (5 Millimolar/dmso)],Fibrin % inhibition,[1]; compounds at 10 μM,−6%
same,Quadrant (FIG. 5b),[2]; [12],Q4
same,LPS % cell toxicity,primary rat microglia [3],0%
same,Fibrin % cell toxicity,primary rat microglia [4]; [13],1%
same,LPS % inhibition,[5]; [8],17%
C=CC[N+]1([C@H]2C[C@H]3[C@@H]4CC[C@H]5C[C@H](O)[C@@H](N6CCOCC6)C[C@]5(C)[C@H]4CC[C@]3(C)[C@H]2OC(C)=O)CCCC1 [Rocuronium],inhibition at 10 µM,[1]; [9],-22%
same,Quadrant (FIG. 5b),[2]; [10],Q4
same,LPS % cell toxicity,primary rat microglia [3]; rat,0%
same,Fibrin % cell toxicity,primary rat microglia [4]; [11],1%
same,inhibition at 10 µM,[5]; 48 h,5%
CC1(C)S[C@@H]2[C@H](NC(=O)[C@H](NC(=O)N3CCNC3=O)c3ccccc3)C(=O)N2[C@H]1C(=O)O [Azlocillin],Fibrin % inhibition,"[1]; compounds at 10 μM, 10 µM",−14%
same,Quadrant (FIG. 5b),[2]; [6],Q4
same,LPS % cell toxicity,primary rat microglia [3]; rat,1%
same,Fibrin % cell toxicity,primary rat microglia [4]; [7],1%
same,LPS % inhibition,[5]; [14],6%
Nc1ncnc2nc[nH]c12 [Adenine],inhibition at 10 µM,[1]; compounds at 10 μM,-7%
same,Quadrant (FIG. 5b),[2]; [6],Q4
same,LPS % cell toxicity,primary rat microglia [3]; rat,1%
same,Fibrin % cell toxicity,primary rat microglia [4]; [7],1%
same,inhibition at 10 µM,[5]; [8],22%
"Oc1ccc(Cl)cc1Cc1cc(Cl)ccc1O [Dichlorophene, Dichlorophen]",Fibrin % inhibition,[1]; compounds at 10 μM,−23%
same,Quadrant (FIG. 5b),[2]; [12],Q4
same,LPS % cell toxicity,primary rat microglia [3],0%
same,Fibrin % cell toxicity,primary rat microglia [4]; [13],1%
same,LPS % inhibition,[5]; [8],15%
